The values that follow come from article PMC9561422 (Clinical and Translational Medicine, 2022).

One may read the pIC50 as the IC50 on a negative log10 scale, so that one unit is a factor of ten. A low value points to a high IC50. A word on the IC90: it is the concentration at which the effect reaches the 90% level. Read a high IC90 as weaker potency. In general, Papp A→B refers to the apparent permeability from the apical to the basolateral side of a cell layer. A high value points to fast passage.

One data set in a line: liver homogenate. The note with it: C57BL/6 mice.
The nature of the next data set: faeces homogenate. The note with it: C57BL/6 mice.
Another data set can be described thus: kidney homogenate. The note with it: C57BL/6 mice.
The nature of a further data set: muscle homogenate. The settings on record: C57BL/6 mice.
The nature of data set [1]: colon homogenate (incl. caecum). The settings on record: C57BL/6 mice.
The test system of another data set is human myotubes. The note with it: MTT dose-response curve. The method, then:
(§1) Initially, MTT concentration‐response experiments in murine and human myoblasts as well as in myotubes were performed.
(§2) The 95% confidence interval of this curve is shown as grey area. IC10 is shown as a red vertical line.

In a further data set the test system is C2C12 myotubes. The settings on record: Murine myotubes, MTT dose-response curve. How it is done:
as §1, §2
(§3) Data are means ± SEM. […] (D–F) Data are means ± SEM. *p < .05; **p < .01; ***p < .001; two‐tailed Welch's t‐test. […] The exponent is read as -7; the minus sign and the digit are not certain. / Panel A: no compound label is printed beside the value. 'QSP' comes from the y-axis title of the same panel.

For the next data set, the system named is C2C12 myoblasts. The note with it: Murine myoblasts, MTT dose-response curve. How it is done:
as §1
(§4) Supplementary Figure 1. […] A) C2C12 myoblasts; B) human myoblasts. The x-axis indicates the different QSP concentrations, while the y-axis represents MTT reduction relative to placebo (placebo = 1.0). Squares (+ error bars) are means (+ SEM) of n=8-10 for each concentration, with the curve representing the best fitting 3-parameter logistic model around the means. The 95% confidence interval of this curve is shown as grey area. IC10 is shown as a red vertical line.

The test system of the next data set is human myoblasts. The method, then: as §1, §4
The test system of the next data set is C. elegans. The settings on record: adult worms treated once with 1 µM; n = 341, 5 independent experiments. From the text:
Data presented are means ± SEM. * P < 0.05; ** P < 0.01 and *** P < 0.001; Welch’s 2-sided t-test with placebo as reference.DACBSupplementary Figure 2

The next data set in a line: in vitro. The settings on record: human, Caco-2.
Source text: as §3
(§5) [picture] Supplementary Figure 5. […] Data are means ± SEM.Supplementary Figure 5

In another data set the test system is CaCo‐2 monolayer. The data set is described as follows: in vitro. The note with it: CaCo-2 monolayer, apical-basal, 4°C, n = 6.
Source text: as §3, §5

The conditions of data set [2]: ex vivo. How it is done: The powdered medium is dissolved in 900 mL water while stirring. To this solution, 0.3790 g CaCl2×2H2O and 2.098 g NaHCO3 are subsequently added while stirring. NaOH or HCl was used to adjust to pH 7.4. This solution is then further diluted to 1000 mL using ultrapure water.
The blood was collected in a 1.5 mL Eppendorf tube after decapitating the mouse. The blood of the 4 mice was pooled and centrifuged for 10 min at 1000 g at 5 °C. The supernatant (serum) was transferred to a 500 µL Eppendorf and was immediately frozen and stored at -35 °C.
The liver (5.0070 g) was collected from four C57BL/6 mice after cervical dislocation. After cleaning and rinsing the organ using ice-cold KH buffer, the liver was cut in little pieces and transferred into a 50 mL tube to which 36 mL ice-cold KH buffer was added. The liver was then homogenized with mixer. After the larger particles were allowed to settle for about 30 minutes at 5 °C, approximately 25 mL of the middle layer was transferred into a 50 mL Falcon tube using a plastic pipette. After shaking the homogenate, the homogenate was dispensed into ten 2 mL Eppendorf tubes, and stored at -35 °C until use. The protein content of the homogenate was determined to be 18.24 mg/mL using the Pierce Modified Lowry Protein Assay method. Just before use, the homogenate was diluted to a protein concentration of 0.6 mg/mL (i.e. 300 µg / 500 µl) by the addition of 29.4 mL of KH buffer to 1000 µl of the homogenate.
The kidneys (1.4143 g) were collected from four C57BL/6 mice after cervical dislocation. After cleaning and rinsing the organs using ice-cold KH buffer, the kidneys were cut in little pieces and transferred into a 50 mL tube to which 24 mL ice-cold KH buffer was added. The kidneys were then homogenized with mixer. After the larger particles were allowed to settle for about 30 minutes at 5 °C, approximately 10 mL of the middle layer was transferred into a 50 mL Falcon tube using a plastic pipette. After shaking the homogenate, the homogenate was dispensed into five 2 mL Eppendorf tubes, and stored at -35 °C until use. The protein content of the homogenate was determined to be 5.92 mg/mL using the Pierce Modified Lowry Protein Assay method. Just before use, the homogenate was diluted to a protein concentration of 0.6 mg/mL (i.e. 300 µg / 500 µl) by the addition of 8.87 mL of KH buffer to 1000 µl of the homogenate.
The colons (incl. caecum) (1.4174 g) were collected from four C57BL/6 mice after cervical dislocation. After cleaning and rinsing the organs using ice-cold KH buffer, the colons were cut in little pieces and transferred into a 15 mL tube to which 5 mL ice-cold KH buffer was added. The colons were then homogenized with mixer. After the larger particles were allowed to settle for about 30 minutes at 5 °C, approximately 2 mL of the middle layer was dispensed into a 2 mL Eppendorf tube, and stored at -35 °C until use. The protein content of the homogenate was determined to be 2.35 mg/mL using the Pierce Modified Lowry Protein Assay method. Just before use, the homogenate was diluted to a protein concentration of 0.6 mg/mL (i.e. 300 µg / 500 µl) by the addition of 2.92 mL of KH buffer to 1000 µl of the homogenate.
Fresh faeces (0.1810 g) was collected from four C57BL/6 mice. The faeces was then cut in little pieces and transferred into a 15 mL tube to which 5 mL ice-cold KH buffer was added. […] The protein content of the homogenate was determined to be 1.48 mg/mL using the Pierce Modified Lowry Protein Assay method. […]

A further data set relates to C2C12 myoblast. As to the kind of experiment: Viability assays other than MTT on C2C12 myoblasts. It counts as cell-based, murine. The note with it: 1 µM; trypan blue, Hoechst/PI, LDH release, Bax/Bcl2, Apotox assay. Background: LDH leaks from cells whose membrane has failed.
The conditions of data set [3]: germ-free mice inoculated with genetically modified E. coli continuously producing iAM373.
Source text: as §3

pIC50: −log10 of the molar value. “Also recorded” adds a separate entry of the source. Like-named read-outs stand apart in the source and are kept apart here. Ends that are not written are not given here.

For SIFTLVA, the fragment found result in the data set “liver homogenate” is “FTLVA, major”; in “faeces homogenate”, “SIF, major”; in “kidney homogenate”, “SIFT, major; also recorded: SIFTL, major”; in the data set “muscle homogenate” it was “SIFTL, major”; in data set [1], “SIFTL, major”.
With SIFTLVA [iAM373], the estimated plasma concentration in iAM373-positive older residents was 453 pM. In the data set on human myotubes, this substance had a pIC50 of 8.27. The substance also gave a pIC50 in the data set on C2C12 myotubes of 7.89. In the data set with C2C12 myoblasts, the pIC50 was 7.21. Besides, the pIC50 with human myoblasts (Human myoblasts, MTT dose-response curve) was 6.74. In the data set with human myoblasts (human myoblasts, MTT), this substance returned an IC90 of 930 nM. Moreover, the “effect on survival of C. elegans” value in the data set with C. elegans is listed as “without a clear effect on survival”. In the data set “in vitro”, the Papp A→B was 0.14 ×10⁻⁶ cm/s. In the data set on CaCo‐2 monolayer, the “apical‐basal permeability coefficient (Papp)” value was 0.87×10^–7 cm/s. Moreover, the “Main metabolite at approx. T1/2” value in [2] (murine colon homogenate) is “SIFTL (180 min)”. In addition, the “Main metabolite at approx. T1/2” value in data set [2] (murine faeces homogenate) was “SIF (60 min)”. For the same substance, in [2] (murine kidney homogenate), the “Main metabolite at approx. T1/2” value is on record as “SIFT (30 min) SIFTL (30 min)”. Besides, the “Main metabolite at approx. T1/2” value in [2] (murine liver homogenate) is “FTLVA (180 min)”. The “Main metabolite at approx. T1/2” value in data set [2] (murine muscle homogenate) was “SIFTL (180 min)”. Besides, the “cytotoxic or cytostatic effect in viability assays other than MTT” value in the data set on C2C12 myoblast is given as “did not show a clear cytotoxic or cytostatic effect”. Also, in data set [3], the “presence in blood circulation after oral gavage of iAM373-producing E. coli” value is listed as “detected in the blood circulation”.
